Measurements from US20150374705A1, “Substances for treatment or relief of pain” (Shanghai Institues for Biological Sciences, priority 2012, published 2015).
“Also recorded” adds a separate entry of the source. Read-outs that look alike come from different tables or passages of the source.

Assays:
[1] = biological target: T1, Human recombinant α5-GABAA receptor (Homo sapiens, UniProt P18507+P31644); conditions: Jones et al. 2006; cited from earlier work
T1 construct: expressed in transfected cells; host or cells: 293 cell line

[2] = system: brain microvessel endothelial cells co-cultivated with astrocyte; experiment: In vitro blood-brain barrier model (BBBM); type: in vitro ADME
Source text: Through in vitro blood-brain barrier model (BBBM), whether the substance to be measured could effectively pass blood brain barrier was detected. In this experiment, brain microvessl endothelial cells were co-cultivated with astrocyte, and then whether the substance to be measured could effectively pass cellular membrane was detected. For detailed method, please refer to related literature (Culot M et al., An in vitro blood-brain barrier model for high throughput (HTS) toxicological screening. Toxicol In Vitro. 2008 April; 22(3):799-811).

[3] = system: SNI model rats (neuropathic pain); experiment: Spared nerve injury (SNI) model, neuropathic pain, mechanical pain threshold; type: in vivo; conditions: rat; for Suppression of neuropathic pain (nociceptive threshold): 3 mg/kg injection, 0.5-24 hours after administration; for Suppression of neuropathic pain (nociceptive threshold) / Tolerance on continuous administration: 14 days after SNI; for Tolerance on continuous administration: continuous injection for 6 days, measured 1-3 hours after administration
Method in brief: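 Male SD rats (200-250 g, n=6) with spared nerve injury (tibial and common peroneal ligated and cut, sural spared) were tested blind. Von Frey filaments (1-50 g) on the plantar paw gave the 50% withdrawal threshold. Compounds in 70% PEG400 were injected at 2-3 mg/kg; MRK016-M3 in 90% PEG400 was given orally at 0.3-10 mg/kg; unpaired t-test.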

[4] = system: α5-GABAA receptor in central nervous system; conditions: in vivo, Jones et al. 2006; cited from earlier work
[5] = system: rat model of inflammatory and neuropathic pain; conditions: Munro G et al., Neuropharmacology 2011; cited from earlier work
[6] = biological target: T2, Human recombinant GABAA receptor containing α2 subunit (α2, β3, γ2) (Homo sapiens, UniProt P18507+P47869); experiment: Competitive radioligand binding ([3H]Ro-0151788) on membranes of 293 cells, Ki; conditions: human recombinant GABAA subtype containing α2; read-out: Affinity, nM (α2)
T2 construct: expressed in transfected cells; host or cells: 293 cell line
Description: Different subunits of GABAA receptor were expressed in cell lines, including human kidney epithelial cell line, 293 cell line or L(tk−) cell line. The cells were cultured in medium, and such cells were used as the cellular model for screening drugs to suppress pain. a subunit, β subunit and γ subunit are indispensable for one complete functional GABAA receptor.
In this example, the inventors established the following cellular models:
(b) simultaneously expressing α1 subunit (GenBank accession number: NM_001127648.1), β3 subunit and γ2 subunit in 293 cell line, forming the GABAA receptor containing α1 subunit; • (c) simultaneously expressing α2 subunit (for the protein sequence, see GenBank accession number NM_000813.2), β3 subunit and γ2 subunit in 293 cell line, forming the GABAA receptor containing α2 subunit;
Each of the (a) to (d) above could form a GABAA receptor with complete function.
Then, the cellular membrane was extracted and the protein concentration was measured. The competitive binding of the substances to be measured and radiolabelled compounds (e.g. 1 nM [^3H]Ro-0151788) were detected respectively to calculate the Ki value of the substances to be measured, see the method described in literature (Ballard T M et al., RO4938581, a novel cognitive enhancer acting at GABAA alpha5 subunit-containing receptors. Psychopharmacology (Berl). 2009 January; 202(1-3): 207-23). If the binding inhibition constant Ki (nM) of α5-GABAA receptor with the candidate substances in experimental group is less than the Ki of the receptor containing other a subunit (α1 subunit, α2 subunit or α3 subunit), then the candidate substance is a potential drugs for preventing, relieving or treating pain. Many methods can be used by those skilled in the art to evaluate the binding capacity of the ligand of α5-GABAA receptor to the α5-GABAA receptor, including but not limiting to the method above.

[7] = human, Phase II, cited from earlier work

| SMILES | Inverse agonist effect of α5-GABAA receptor [1] | Passing blood brain barrier [2] | Suppression of neuropathic pain, topical administration ([3]; 100 microliter (1 mg/ml) injected to the feet, 10 days after SNI) | Suppression of neuropathic pain (pain threshold) in rats injected with control siRNA ([3]; oral 3 mg/kg, control siRNA intrathecal, 3 mg/kg) | Suppression of neuropathic pain (pain threshold) in rats injected with siRNA specific to α5 subunit ([3]; oral 3 mg/kg, α5-specific siRNA intrathecal, 3 mg/kg) | Suppression of neuropathic pain (mechanical pain), dose-dependent experiment ([3]; oral 10 mg/kg, 3 mg/kg and 1 mg/kg, 10 to 20 days after SNI, 1 hour after administration) | Binding to α5-GABAA receptor in brain / inhibition of (3H)Ro-15-1788 binding in center [4] | Inhibition rate of the binding of (3H)Ro-15-1788 in center [4] | Effect on treating pain reported in literature [5] | Ki [6] | Toxicity in Phase II clinical trial [7] | Toxicity in Phase II clinical trial ([7]; listed as A5I) | Suppression of neuropathic pain (nociceptive threshold) ([3]; 3 mg/kg) | Suppression of neuropathic pain (nociceptive threshold) ([3]; listed as A5I, 3 mg/kg) | Tolerance on continuous administration [3] | Tolerance on continuous administration ([3]; listed as A5I) |
| --- | --- | --- | --- | --- | --- | --- | --- | --- | --- | --- | --- | --- | --- | --- | --- | --- |
| Cn1ncnc1COc1nn2c(-c3cc(CO)on3)nncc2c1C(C)(C)C [MRK016-M3, (3-(3-tert-butyl-2-((2-methyl-2H-1,2,4-triazol-3-yl)methoxy)pyrazolo [1,5-d][1,2,4]triazin-7-yl)isoxazol-5-yl)methanol] | significant inverse agonist effect | cannot significantly pass blood brain barrier | still efficiently suppressed | significantly suppressed neuropathic pain; also recorded: significantly increased the pain threshold | no obvious effect; also recorded: did not significantly increase the nociceptive threshold | significantly suppressed | not capable of binding the α5-GABAA receptor in brain; also recorded: cannot significantly inhibit; also recorded: could hardly enter into the brain | about 12% | – | – | – | – | – | – | – | – |
| Cc1cc(-c2nnc3c4ccccc4c(OCC4=CC(C)C=N4)nn23)no1 (stereo not drawn) [α5IA] | – | – | – | – | – | – | – | – | no effect | 0.58 nM | certain toxic problems | renal toxicity | significantly suppressed neuropathic pain | efficiently suppressed neuropathic pain | did not generate tolerance response | did not produce tolerance |
